The text below walks through data of patent US5489613A, “Carbacyclin derivatives, process for their preparation and compositions containing them” (priority 1983, dated 1996).

Converted amounts (≈) assume the structure as drawn.

Assay type in all cases: cell-based
For assay [1], the system named is platelet aggregation (platelet-rich plasma). Nature of the assay: Inhibition of platelet aggregation (ADP-induced), Born's turbidimetric method, rabbit blood. The note with it: Oryctolagus cuniculus, 2 min, read-out: Concentration (ng/ml) for 50% inhibition, rabbit blood. The method, then:
(§1) Platelet aggregation was determined by the following means: 0.05 ml of a test liquid (containing, in various concentrations, the compound whose inhibitory effect was to be tested) was added to 1 ml of this platelet-rich plasma; two minutes after the addition, 0.2 ml of a liquid containing adenosine diphosphate at a concentration of 5 μM was added; the increase in light transmission at 600 nm was determined by means of a platelet aggregometer manufactured by Bryston Co. Limited.

Assay [2] has the same test system. The assay can be described thus: Inhibition of platelet aggregation (ADP-induced), Born's turbidimetric method, human blood. The following applies: 2 min, read-out: Concentration (ng/ml) for 50% inhibition, human blood. The procedure: as §1
In the next assay the test system is blood platelets. The assay can be described thus: Inhibition of aggregation of blood platelets (thrombocyte agglutination), stated in words.
The mark [3] stands for this setting: rabbit platelet-rich plasma, adenosine diphosphate 5 μM, 2 min after addition of test liquid, 600 nm.
Setting [4] is: human platelet-rich plasma, adenosine diphosphate 5 μM, 2 min after addition of test liquid, 600 nm.

Consider `CCCCC[C@H](O)/C=C/[C@@H]1[C@H]2C/C(=C/CCCC(=O)O)C[C@H]2C[C@H]1O` [Compound B, carbacyclin], for which the IC50 in assay [1] (Platelet) came to 36 ng/mL (≈ 103 nM); in assay [2] (Homo sapiens, Platelet), 13.3 ng/mL (≈ 37.9 nM).

With `C=CCCCC(C)[C@H](O)/C=C/[C@@H]1[C@H]2CC(CCCCC(=O)O)=C[C@H]2C[C@H]1O` (stereo partly drawn) [Compound 60, 3-(4-Carboxybutyl)-6β-(3α-hydroxy-4-methylnona-1,8-dienyl)-7α-hydroxy-cis-bicyclo[3,3,0]oct-2-ene], the IC50 in assay [1] (setting [3]) was 1.1 ng/mL (≈ 2.92 nM); in assay [2] (setting [4]), 1.8 ng/mL (≈ 4.78 nM).

In the case of `O=C(O)CCCCC1=C[C@H]2C[C@@H](O)[C@H](/C=C/[C@@H](O)CC3CCCC3)[C@H]2C1` [Compound 100, 3-(4-Carboxybutyl)-6β-(3α-hydroxy-4-cyclopentylbut-1-enyl)-7α-hydroxy-cis-bicyclo[3,3,0]oct-2-ene], the IC50 in assay [2] (setting [4]) is 1.1 ng/mL (≈ 3.03 nM).

Turning to `O=C(O)CCCCC1=C[C@H]2C[C@@H](O)[C@H](/C=C/[C@@H](O)C3CCCCC3)[C@H]2C1` [Compound 98, 3-(4-Carboxybutyl)-6β-(3α-hydroxy-3-cyclohexylprop-1-enyl)-7α-hydroxy-cis-bicyclo[3,3,0]oct-2-ene], the IC50 stood at 3.3 ng/mL (≈ 9.1 nM) in assay [1] (setting [3]) and 0.9 ng/mL (≈ 2.48 nM) in assay [2] (setting [4]).

As for `CCCCC[C@H](O)/C=C/[C@@H]1[C@H]2CC(CCCCC(=O)O)=C[C@H]2C[C@H]1O` [Compound C, reference compound], the IC50 in assay [1] (setting [3]) is 5.9 ng/mL (≈ 16.8 nM); in assay [2] (setting [4]), 3.6 ng/mL (≈ 10.3 nM). In addition, the “ability to inhibit aggregation of blood platelets” value in the assay with blood platelets is “has the ability to inhibit aggregation blood platelets”.

In the case of `O=C(O)CCCCC1=C[C@H]2C[C@@H](O)[C@H](/C=C/[C@@H](O)C3CCCC3)[C@H]2C1` [Compound 90, 3-(4-Carboxybutyl)-6β-(3α-hydroxy-3-cyclopentylprop-1-enyl)-7α-hydroxy-cis-bicyclo[3,3,0]oct-2-ene], the IC50 in assay [1] (setting [3]) worked out at 3.7 ng/mL (≈ 10.6 nM); in assay [2] (setting [4]), 0.5 ng/mL (≈ 1.43 nM).

As to `CCCCC[C@H](O)/C=C/[C@H]1[C@H](O)CC(=O)[C@@H]1CCCCCCC(=O)O` [Compound A, PGE1, reference compound], the values for the IC50 in assay [1] (setting [3]) and in assay [2] (setting [4]) were 36 ng/mL (≈ 102 nM) and 9.3 ng/mL (≈ 26.2 nM), respectively.

Consider `CC#CCC(C)[C@H](O)/C=C/[C@@H]1[C@H]2CC(CCCCC(=O)O)=C[C@H]2C[C@H]1O` (stereo partly drawn) [Compound 85, 3-(4-Carboxybutyl)-6β-(3α-hydroxy-4-methyloct-1-en-6-ynyl)-7α-hydroxy-cis-bicyclo[3,3,0]oct-2-ene], for which the IC50 in assay [1] (setting [3]) turned out to be 3.6 ng/mL (≈ 9.99 nM); in assay [2] (setting [4]) it was 0.4 ng/mL (≈ 1.11 nM).
